Assays:
HDL = assay: elevation of HDL, test drug versus gemfibrozil; type: in vivo, rats; conditions: 50 mg/kg test drug vs 50 mg/kg gemfibrozil; 1 = as effective as gemfibrozil
Experimental: Additionally, the elevation of HDL is reported in the table as a ratio of the elevation of HDL effected by a dose of 50 mg/kg of the test drug divided by the elevation of HDL effected by a 50 mg/kg dose of gemfibrozil which is used as a control in each experiment. [formula] Thus, a figure of 1 means that the test drug was as effective as gemfibrozil in elevating HDL. […] The test procedure is described in U.S. Pat. No. 4,413,011.

[1] = target: T1, acyl-CoA:cholesterol acyltransferase (ACAT) (Oryctolagus cuniculus, UniProt G1SFD9); assay: inhibition of esterification of cholesterol by ACAT (cholesteryl oleate formation), rabbit intestinal microsomal fraction; type: biochemical; conditions: endogenous cholesterol, exogenous 14C-oleoyl-CoA, read-out: IC50 (concentration of test compound required to inhibit cholesteryl oleate formation to 50% of control)
T1 construct: rabbit intestinal microsomal fraction; from tissue; host or cells: rabbit intestine, microsomal fraction
T1 sequence (G1SFD9 1-524): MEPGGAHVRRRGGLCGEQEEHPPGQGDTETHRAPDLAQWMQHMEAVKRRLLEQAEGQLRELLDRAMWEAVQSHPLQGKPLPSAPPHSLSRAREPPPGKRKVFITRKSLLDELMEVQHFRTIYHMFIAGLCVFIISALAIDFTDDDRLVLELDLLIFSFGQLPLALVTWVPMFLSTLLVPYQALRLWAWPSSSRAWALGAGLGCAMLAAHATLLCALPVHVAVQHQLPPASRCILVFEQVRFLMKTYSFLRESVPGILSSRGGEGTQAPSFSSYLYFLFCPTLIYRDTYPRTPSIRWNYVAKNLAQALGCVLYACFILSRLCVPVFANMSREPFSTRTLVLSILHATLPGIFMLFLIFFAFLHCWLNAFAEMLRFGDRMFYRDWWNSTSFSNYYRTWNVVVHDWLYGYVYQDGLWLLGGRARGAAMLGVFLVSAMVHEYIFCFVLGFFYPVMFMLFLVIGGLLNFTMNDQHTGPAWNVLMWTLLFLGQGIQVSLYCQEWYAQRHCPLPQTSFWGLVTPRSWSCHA
Experimental: The compounds of the present invention were tested for their ability to inhibit the esterification of cholesterol by the enzyme acyl-CoA:cholesterol acyltransferase (ACAT). The data in the table below is expressed as IC50 values, i.e., the concentration of test compound required to inhibit cholesteryl oleate formation to 50% of control.
The in vitro test employed is more fully described in Field, F. J. and Salome, R. G., Biochemica et Biophysica Acta, 712, pp 557-570 (1982). The assay evaluates the ability of a test compound to inhibit the esterification of cholesterol using endogenous cholesterol of a rabbit intestinal microsomal fraction and exogenous ^14 C-oleoyl-CoA as reactants.

[2] = tested on: patients with elevated cholesterol levels; conditions: cited from earlier work

Row | SMILES | ratio of the elevation of HDL effected by test drug divided by the elevation of HDL effected by gemfibrozil (HDL) | IC50 [1] [µM] | effect on LDL and HDL ([2]; in words) | reduction of the rate of heart attack and sudden cardiac death ([2]; patients with elevated cholesterol levels, five years) [%]
1 | Cc1ccc(C)c(OCCCC(C)(C)C(=O)Nc2ccc3c(c2)OCO3)c1 [Example 1k, N-1,3-Benzodioxol-5-yl-5-(2,5-dimethylphenoxy)-2,2dimethylpentanamide] | 1.13 | 6 | – | –
2 | Cc1ccc(C)c(OCCCC(C)(C)C(=O)Nc2c(F)cc(F)cc2F)c1 [Example 1h, 5-(2,5-dimethylphenoxy)-2,2-dimethyl-N-(2,4,6-trifluorophenyl)pentanamide] | 0.74 | 0.8 | – | –
3 | COc1ccc(NC(=O)C(C)(C)CCCOc2cc(C)ccc2C)cc1OC [Example 1c, N-(3,4-Dimethoxyphenyl)-5-(2,5-dimethylphenoxy)-2,2-dimethylpentanamide] | 1.10 | 3 | – | –
4 | Cc1ccc(C)c(OCCCC(C)(C)C(=O)O)c1 [gemfibrozil] | – | – | both lowers LDL and elevates HDL | 34
5 | Cc1ccc(C)c(OCCCC(C)(C)C(=O)Nc2ccc(C)cc2OC(C)C)c1 [Example 1j, 5-(2,5-Dimethylphenoxy)-2,2-dimethyl-N-[4-methyl-2-(1-methylethoxy)phenyl]pentanamide] | 0.84 | 8 | – | –
6 | COc1cc(C)ccc1NC(=O)C(C)(C)CCCOc1cc(C)ccc1C [Example 1a, 5-(2,5-dimethylphenoxy)-N-(2-methoxy-4-methylphenyl)-2,2-dimethylpentanamide] | 0.80 | 6 | – | –
7 | CCOC(=O)C=Cc1ccc(NC(=O)C(C)(C)CCCOc2cc(C)ccc2C)cc1 [Example 5, 3-[4-[[5-(2,5-Dimethylphenoxy)-2,2-dimethyl-1-oxopentyl]amino]phenyl]-2-propenoic acid, ethyl ester, reference compound] | 0.56 | 45 | – | –
8 | Cc1ccc(C)c(OCCCC(C)(C)C(=O)Nc2ccc(F)cc2F)c1 [Example 1g, N-(2,4-Difluorophenyl)-5-(2,5-dimethylphenoxy)-2,2dimethylpentanamide] | 0.36 | 7 | – | –
9 | COC(=O)C(C)(C)CCCOc1ccccc1NC(=O)C(C)(C)CCCOc1cc(C)ccc1C [Example 1l, 5-[2[[5-(2,5-dimethylphenoxy)2,2-dimethyl-1-oxopentyl]amino]phenoxy]-2,2-dimethylpentanoic acid, methyl ester] | 0.4 | 8 | – | –
10 | Cc1ccc(NC(=O)C(C)(C)CCCOc2cc(C)ccc2C)c(C)c1 [Example 1b, 5-(2,5-Dimethylphenoxy)-N-(2,4-dimethylphenyl)-2,2-dimethylpentanamide] | 1.29 | 8 | – | –
11 | COc1ccccc1NC(=O)C(C)(C)CCCOc1cc(C)ccc1C [Example 1, 5-(2,5-dimethylphenoxy)-N-(2-methoxyphenyl)-2,2-dimethylpentanamide] | 0.31 | 14 | – | –
12 | COC(=O)C(C)(C)CCCOc1cccc(NC(=O)C(C)(C)CCCOc2cc(C)ccc2C)c1 [Example 1m, 5-[3-[[5-(2,5-dimethylphenoxy)-2,2-dimethyl-1-oxopentyl]amino]phenoxy]-2,2-dimethylpentanoic acid, methyl ester] | 1.0 | 21 | – | –
13 | CCOc1ccccc1NC(=O)C(C)(C)CCCOc1cc(C)ccc1C [Example 1d, 5-(2,5-dimethylphenoxy)-N-(2-ethoxyphenyl)-2,2-dimethylpentanamide] | 1.08 | 5 | – | –
14 | CCCCCCOc1ccccc1NC(=O)C(C)(C)CCCOc1cc(C)ccc1C [Example 1f, 5-(2,5-dimethylphenoxy)-N[2-(hexyloxy)phenyl]-2,2-dimethylpentanamide] | 0.42 | 10 | – | –

Reference: US4882357A, “Novel N-(substituted-phenyl)-5-(substituted-2,5-dimethylphenoxy)-2,2-dimethylp entanamides” (Warner-Lambert Company, priority 1988, dated 1989)
